From patent publication US9051351B2, “Hepatocyte growth factor mimics as therapeutic agents” (Washington State University, priority 2011, dated 2015)
“Also recorded” adds a separate entry of the source. Where a SMILES comes first, the peptide text is derived from it. [ ]: non-standard residue; d: D form. The star is where a group is joined. Hexanoyl = CCCCCC(=O)*; Ahx = NCCCCCC(=O)O

Assays:
hippocampal neurons = test: Spine head width in mRFP-β-actin transfected hippocampal neurons; type: cell-based, rat; conditions: 10^−12 M, 5 days
Description: Neurons were transfected with mRFP-β-actin on day in vitro 6 […] using LipofectAMINE™ 2000 (Invitrogen) according to the manufacturer's protocol. This protocol yielded the desired 3-5% transfection efficiency thus enabling the visualization of individual neurons. Higher efficiencies obscured the dendritic arbor of individual neurons. Expression of fluorescently tagged actin allowed clear visualization of dendritic spines, as dendritic spines are enriched in actin. On DIV7 the cells were treated with vehicle (H2O) or peptides (as described in the text) added to media. […] Slides were dried for at least 20 hours at 4° C. and fluorescent images were obtained with Slidebook 4.2 Digital Microscopy Software driving an Olympus IX81 inverted confocal microscope with a 60× oil immersion lens, NA 1.4 and resolution 0.280 μm Dendritic spine density was measured on primary and secondary dendrites at a distance of at least 150 μm from the soma. Five 50 μm long segments of dendrite from at least 10 neurons per data point were analyzed for each data point reported. […] Dendrite length was determined using the National Institutes of Health's Image J 1.41o program (NIH, Bethesda, Md.) and the neurite tracing program Neuron J (Meijering, Jacob et al. 2004) Spines were manually counted. […]

scopolamine treated rats = test: Morris water maze, scopolamine amnesia model; type: in vivo, rat; conditions: for mean latency to find the pedestal: Dihexa, Hinge 300 pmol, scopolamine 70 nmol
Protocol: (§1) Swim speed was determined from these values.

c-Met = test: Augmentation of HGF-dependent c-Met phosphorylation in HEK293 cells; type: cell-based, human; conditions: HEK 293 cells, HGF+/−Dihexa, 30 minutes
Protocol: HGF mimetic activity was typically assessed by one or both of two methods: augmentation of HGF-dependent c-Met phosphorylation in HEK293 cells, or 2) augmentation of HGF-dependent cell scattering in MDCK cells. All the compounds in Family one were tested using the c-Met phosphorylation assay. […]
Human embryonic kidney cells 293 (HEK293), Madin Darby canine kidney cells (MDCK), and B16F10 murine melanoma cells were grown in DMEM, 10% fetal bovine serum (FBS). Cells were grown to 90-100% confluency before use. For most but not all studies HEK and MDCK cells were serum starved for 24 hours prior to the initiation of drug treatment.
HEK293 cells were seeded in 6 well tissue culture plates and grown to 95% confluency in DMEM containing 10% FBS. […] The lysate was clarified by centrifugation at 15,000 g for 15 minutes, protein concentrations were determined using the BCA total protein assay, and then appropriate volumes of the lysates were diluted with 2× reducing Laemmli buffer and heated for ten minutes at 95° C. […] Proteins were visualized using the Supersignal West Pico Chemiluminescent Substrate system (Pierce, Fenton, Mo.) and molecular weights determined by comparison to protein ladders (BenchMark, Invitrogen; and Kaleidoscope, BioRad). Images were digitized and analyzed using a UVP phosphoimager.

aged rats = test: Morris water maze, aged rat model; type: in vivo; conditions: aged rats of mixed sex, Dihexa oral 2 mg/kg/day, 8 days
Protocol: as §1
The aged rat study employed 24 month old rats of mixed sex. […] The guide was then sealed with a thick stainless steel wire.

[1] = scopolamine icv, dihexa icv 1 nmol

**Q.** Which results are given for `CCCCCC(=O)N[C@@H](Cc1ccc(O)cc1)C(=O)N[C@H](C(=O)NCCCCCC(N)=O)[C@@H](C)CC` [Dihexa, N-hexanoic-Tyr-Ile-(6)-aminohexanoic amide] (Hexanoyl-Tyr-Ile-[Ahx]-NH2)?
**A.** spine head width (hippocampal neurons): 0.80 μm; mean latency to find the pedestal (scopolamine treated rats; day one of training, icv): 115.2 s; time spent in the target quadrant, day 9 probe trial (scopolamine treated rats; dihexa at its highest dose, icv, ip and oral delivery): increased the time spent in the target quadrant; time spent in the target quadrant, day 9 probe trial (scopolamine treated rats; dihexa ip 0.05, 0.25, 0.50 mg/kg): Each of the treatment groups was different than the scopolamine; time spent in the target quadrant, day 9 probe trial (scopolamine treated rats; dihexa oral 1.25 and 2.0 mg/kg): Both of the treatment groups were different than the scopolamine; mean latency to find the pedestal (scopolamine treated rats; final day of training (day 8), icv): 62.3 s; mean latency to find the pedestal (scopolamine treated rats; fourth day of training, icv): 63.0 s; latency to escape, Morris water maze (FIG. 21) (scopolamine treated rats; i.c.v. injections, 8 days of training): show rapid facilitation of the task; latency to find the pedestal in the water maze (scopolamine treated rats; scopolamine icv, Dihexa ICV 10 pmoles (low dose)): not 10 pmoles; latency to find the pedestal in the water maze (scopolamine treated rats; scopolamine icv, Dihexa ICV 100 pmoles (high dose), daily, 8 days): reversed scopolamine-dependent learning deficits; also recorded: completely overcome the scopolamine deficits; latency to find the pedestal in the water maze (scopolamine treated rats; scopolamine icv, Dihexa oral 1.25 mg/kg/day (low dose)): partially reversed; latency to find the pedestal in the water maze (scopolamine treated rats; scopolamine icv, Dihexa oral 2 mg/kg/day (high dose), 2 mg/kg/day): no different than controls; also recorded: completely overcome the scopolamine deficits; latency to find the pedestal in the water maze (scopolamine treated rats; scopolamine icv, Dihexa oral 2 mg/kg/day (high dose), listed as dihexa, 2 mg/kg/day): indistinguishable from vehicle controls; also recorded: completely reversed the scopolamine-dependent learning deficit; latency to find the submerged platform in the Morris water maze (scopolamine treated rats; scopolamine icv, dihexa icv 0.1 nmol): significantly improved performance when compared to the scopolamine group on days 5-8; latency to find the submerged platform in the Morris water maze (scopolamine treated rats; [1]): significantly improved performance; also recorded: indistinguishable from the vehicle control group; also recorded: all time points for the 1 nmol dihexa group were different from the scopolamine group; time spent in the target quadrant, day 9 probe trial (scopolamine treated rats; [1]): vehicle control groups were not different; latency to find the submerged platform in the Morris water maze (scopolamine treated rats; scopolamine icv, dihexa ip 0.05 mg/kg): not different than the scopolamine group; latency to find the submerged platform in the Morris water maze (scopolamine treated rats; scopolamine icv, dihexa ip 0.25 mg/kg): different than the scopolamine; latency to find the submerged platform in the Morris water maze (scopolamine treated rats; scopolamine icv, dihexa ip 0.50 mg/kg, 0.5 mg/kg): indistinguishable from vehicle controls; also recorded: different than the scopolamine; also recorded: not different than the vehicle control group; augmentation of HGF activation (phosphorylation) of c-Met (c-Met): dramatically augment the ability of HGF to activate c-Met; also recorded: markedly augments the ability of HGF to signal to c-Met; also recorded: work synergistically to activate c-Met; latency to find the pedestal in the water maze (aged rats): preformed significantly better in the water maze than untreated rats; also recorded: performed significantly better than untreated controls; latency to find the pedestal in the water maze (aged rats; listed as dihexa): significantly improved performance; also recorded: significantly different than that of the non-treated rats
